pEC50: −log10 of the molar value.

The source of these data is patent EP2027081B1, “THERAPEUTIC PROSTAGLANDIN COMPOUNDS FOR THE TREATMENT OF GLAUCOMA” (ALLERGAN, INC., priority 2006, dated 2007).

One assay deals with T1, hEP2/Gqs5 (Homo sapiens, UniProt P43116).
T1 construct: expressed in transfected cells; host or cells: HEK-293(EBNA)
The assay can be described thus: FLIPR calcium signal study, HEK-293(EBNA) cells. The class given is cell-based. Conditions: Table 1; Ca2+ signal; NA means not active; read-out: FUNCTIONAL (Ca2+, EC50, nM) HEP 2. As to the method: (§1) Cells were seeded at a density of 5x10^4 cells per well in Biocoat® Poly-D-lysine-coated black-wall, clear-bottom 96-well plates (Becton-Dickinson) and allowed to attach overnight in an incubator at 37 °C. Cells were then washed two times with HBSS-HEPES buffer (Hanks Balanced Salt Solution without bicarbonate and phenol red, 20 mM HEPES, pH 7.4) using a Denley Cellwash plate washer (Labsystems). After 45 minutes of dye-loading in the dark, using the calcium-sensitive dye Fluo-4 AM at a final concentration of 2 µM, plates were washed four times with HBSS-HEPES buffer to remove excess dye leaving 100 µl in each well. Plates were re-equilibrated to 37 °C for a few minutes.
Cells were excited with an Argon laser at 488 nm, and emission was measured through a 510-570 nm bandwidth emission filter (FLIPR™, Molecular Devices, Sunnyvale, CA). […] The peak increase in fluorescence intensity was recorded for each well. […] The peak fluorescence change in each drug-containing well was then expressed relative to the controls.
Compounds were tested in a high-throughput (HTS) or concentration-response (CoRe) format. In the HTS format, forty-four compounds per plate were examined in duplicates at a concentration of 10^-5 M. To generate concentration-response curves, four compounds per plate were tested in duplicates in a concentration range between 10^-5 and 10^-11 M. The duplicate values were averaged.

For the next assay, the target named is T2, hDP/Gqs5 (Homo sapiens, UniProt Q13258).
T2 construct: expressed in transfected cells; host or cells: HEK-293(EBNA)
The assay can be described thus: FLIPR calcium signal study, HEK-293(EBNA) cells. Type of assay: cell-based. The note with it: Table 1; NA means not active; read-out: FUNCTIONAL (Ca2+, EC50, nM) HDP. As to the method: (§2) HEK-293(EBNA) cells, stably expressing one type or subtype of recombinant human prostaglandin receptors (prostaglandin receptors expressed: hDP/Gqs5; hEP1; hEP2/Gqs5; hEP3A/Gqi5; hEP4/Gqs5; hFP; hIP; hTP), were cultured in 100 mm culture dishes in high-glucose DMEM medium containing 10% fetal bovine serum, 2 mM I-glutamine, 250 µg/ml geneticin (G418) and 200 µg/ml hygromycin B as selection markers, and 100 units/ml penicillin G, 100 µg/ml streptomycin and 0.25 µg/ml amphotericin B.
as §1
(§3) Cells were excited with an Argon laser at 488 nm, and emission was measured through a 510-570 nm bandwidth emission filter (FLIPR™, Molecular Devices, Sunnyvale, CA). Drug solution was added in a 50 µl volume to each well to give the desired final concentration. The peak increase in fluorescence intensity was recorded for each well. On each plate, four wells each served as negative (HBSS-HEPES buffer) and positive controls (standard agonists: BW245C (hDP); PGE2 (hEP1; hEP2/Gqs5; hEP3A/Gqi5; hEP4/Gqs5); PGF2α (hFP); carbacyclin (hIP); U-46619 (hTP), depending on receptor). The peak fluorescence change in each drug-containing well was then expressed relative to the controls.
(§4) Compounds were tested in a high-throughput (HTS) or concentration-response (CoRe) format. In the HTS format, forty-four compounds per plate were examined in duplicates at a concentration of 10^-5 M. To generate concentration-response curves, four compounds per plate were tested in duplicates in a concentration range between 10^-5 and 10^-11 M. The duplicate values were averaged. In either, HTS or CoRe format each compound was tested on at least 3 separate plates using cells from different passages to give an n ≥ 3.

A further assay deals with T3, hEP4/Gqs5 (Homo sapiens, UniProt P35408).
T3 construct: expressed in transfected cells; host or cells: HEK-293(EBNA)
The assay can be described thus: FLIPR calcium signal study, HEK-293(EBNA) cells. Type of assay: cell-based. The note with it: Table 1; NA means not active; read-out: FUNCTIONAL (Ca2+, EC50, nM) HEP 4. The protocol: as §2, §1, §3, §4

The next assay concerns the target T4, human EP2 receptors (Homo sapiens, UniProt P43116).
T4 construct: expressed in transfected cells; host or cells: HEK 293
The assay can be described thus: Competition binding, [3H]PGE2, HEK 293 cells stably expressing human EP2 receptors. The note with it: Table 1; read-out: BINDING (Ki, nM) HEP 2. The protocol: Competition binding experiments were performed in a medium containing Hank's balanced salt solution, Hepes 20 mM, pH 7.3, membranes (∼60 µg protein) or 2x10^5 cells from HEK 293 cells stably expressing human EP2 receptors, [^3H]PGE2 (10 nM) and various concentrations of test compounds in a total volume of 300 µl. Reaction mixtures were incubated at 23 °C for 60 min, and were filtered over Whatman GF/B filters under vacuum. Filters were washed three times with 5 ml ice-cold buffer containing 50 mM Tris/HCl (pH 7.3). Non-specific binding was estimated in the presence of excess unlabeled PGE2 (10 µM). Binding data fitted to the binding model for a single class of binding sites, using nonlinear regression analysis.
HEK-293 cells stably expressing the human or feline FP receptor, or EP1, EP2, or EP4 receptors were washed with TME buffer, scraped from the bottom of the flasks, and homogenized for 30 sec using a Brinkman PT 10/35 polytron. TME buffer was added to achieve a final 40 ml volume in the centrifuge tubes (the composition of TME is 100 mM TRIS base, 20 mM MgCl2, […]; 10N HCl is added to achieve a pH of 7.4).
The cell homogenate was centrifuged at 19000 r.p.m. for 20 min at 4° C using a Beckman Ti-60 rotor. The resultant pellet was resuspended in TME buffer to give a final 1 mg/ml protein concentration, as determined by Biorad assay. Radioligand binding competition assays vs. [^3H-]17 -phenyl PGF2α (5 nM) were performed in a 100µl volume for 60 min. Binding reactions were started by adding plasma membrane fraction. The reaction was terminated by the addition of 4 ml ice-cold TRIS-HCl buffer and rapid filtration through glass fiber GF/B filters using a Brandel cell harvester. The filters were washed 3 times with ice-cold buffer and oven dried for one hour.
[^3H-] PGE2 (specific activity 180 Ci mmol) was used as the radioligand for EP receptors. [^3H] 17-phenyl PGF2α was employed for FP receptor binding studies. Binding studies employing EP1, EP2, EP4 and FP receptors were performed in duplicate in at least three separate experiments. A 200µl assay volume was used. Incubations were for 60 min at 25°C and were terminated by the addition of 4 ml of ice-cold 50 mM TRIS-HCl, followed by rapid filtration through Whatman GF/B filters and three additional 4 ml washes in a cell harvester (Brandel). Competition studies were performed using a final concentration of 5 nM [^3H]-PGE2, or 5 nM [^3H] 17-phenyl PGF2α and non-specific binding determined with 10^-5M of unlabeled PGE2, or 17-phenyl PGF2α, according to receptor subtype studied.

Another assay deals with T5, hEP3A/Gqi5 (Homo sapiens, UniProt P43115).
T5 construct: expressed in transfected cells; host or cells: HEK-293(EBNA)
T5 sequence (P43115 1-390): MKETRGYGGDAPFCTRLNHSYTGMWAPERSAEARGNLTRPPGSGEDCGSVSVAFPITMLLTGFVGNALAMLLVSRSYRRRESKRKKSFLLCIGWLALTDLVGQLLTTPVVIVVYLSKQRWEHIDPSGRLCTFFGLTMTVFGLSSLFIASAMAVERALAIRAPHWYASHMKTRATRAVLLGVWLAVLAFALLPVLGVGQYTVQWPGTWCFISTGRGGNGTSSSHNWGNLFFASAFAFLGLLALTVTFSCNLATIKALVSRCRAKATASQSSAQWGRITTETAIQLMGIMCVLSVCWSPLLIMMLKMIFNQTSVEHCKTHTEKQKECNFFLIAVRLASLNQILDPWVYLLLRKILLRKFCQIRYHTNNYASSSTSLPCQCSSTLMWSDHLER
The experiment in a line: FLIPR calcium signal study, HEK-293(EBNA) cells. Type of assay: cell-based. Conditions: Table 1; NA means not active; read-out: FUNCTIONAL (Ca2+, EC50, nM) HEP 3A. The protocol:
as §2, §1, §3, §4

The next assay has as its target HEP 2 (Homo sapiens, UniProt P43116). The experiment in a line: cAMP mediated assay. The class given is cell-based. Conditions: Table 1; value in brackets, footnote (a).

T1 sequence (P43116 whole entry): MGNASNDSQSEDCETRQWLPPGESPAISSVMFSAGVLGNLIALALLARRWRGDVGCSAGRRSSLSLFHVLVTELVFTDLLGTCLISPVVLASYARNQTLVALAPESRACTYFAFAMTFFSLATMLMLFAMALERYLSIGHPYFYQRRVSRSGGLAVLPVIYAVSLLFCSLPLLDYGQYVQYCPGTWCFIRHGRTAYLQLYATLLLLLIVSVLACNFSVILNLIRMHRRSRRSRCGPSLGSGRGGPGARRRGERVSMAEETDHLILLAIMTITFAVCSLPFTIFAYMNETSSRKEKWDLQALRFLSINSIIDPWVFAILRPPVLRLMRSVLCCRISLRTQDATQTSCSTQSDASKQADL
T4 sequence (P43116 whole entry): as above
HEP 2, sequence (P43116 whole entry): as above
T2 sequence (Q13258 whole entry): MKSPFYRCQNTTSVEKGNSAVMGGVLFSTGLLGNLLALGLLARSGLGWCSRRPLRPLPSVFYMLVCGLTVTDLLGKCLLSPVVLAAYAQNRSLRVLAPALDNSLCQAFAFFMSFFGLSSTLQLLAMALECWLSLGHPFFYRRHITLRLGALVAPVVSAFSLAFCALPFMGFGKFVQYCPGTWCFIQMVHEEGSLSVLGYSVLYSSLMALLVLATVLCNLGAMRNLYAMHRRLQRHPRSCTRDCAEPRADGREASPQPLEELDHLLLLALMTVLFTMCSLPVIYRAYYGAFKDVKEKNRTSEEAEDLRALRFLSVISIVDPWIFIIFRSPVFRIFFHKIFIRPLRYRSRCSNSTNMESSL
T3 sequence (P35408 whole entry): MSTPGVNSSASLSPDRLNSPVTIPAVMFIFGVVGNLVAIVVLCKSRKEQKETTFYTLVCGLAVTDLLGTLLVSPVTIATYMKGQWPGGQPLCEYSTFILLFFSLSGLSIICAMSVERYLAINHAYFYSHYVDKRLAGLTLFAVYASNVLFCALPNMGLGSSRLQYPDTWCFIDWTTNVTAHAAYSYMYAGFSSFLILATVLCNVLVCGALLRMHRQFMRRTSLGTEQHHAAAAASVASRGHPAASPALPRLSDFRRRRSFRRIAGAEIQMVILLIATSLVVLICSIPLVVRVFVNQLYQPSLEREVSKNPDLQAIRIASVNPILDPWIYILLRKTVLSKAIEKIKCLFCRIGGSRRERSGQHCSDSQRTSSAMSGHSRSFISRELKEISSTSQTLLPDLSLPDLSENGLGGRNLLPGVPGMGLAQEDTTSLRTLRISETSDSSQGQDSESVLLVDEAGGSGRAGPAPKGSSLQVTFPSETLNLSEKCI

For orientation: EC50 means the concentration at which the effect is half-maximal. `CCCC1(C(O)c2ccc([C@H]3CCC(=O)[C@@H]3C/C=C\CCCC(=O)O)cc2)CCC1` (some centres unmarked) [Entry 6]: the figures for the 50% effective concentration (EC50) on hEP2/Gqs5 and on hDP/Gqs5 were 2870 nM and over 10000 nM, respectively.

Turning to `CCCC1(C(O)c2ccc([C@H]3CCC(=O)[C@@H]3C/C=C\CCCC(=O)O)cc2)CCC1` (some centres unmarked) [Entry 9], the concentration for a half-maximal effect (EC50) on hEP2/Gqs5 and on hEP4/Gqs5 was over 10000 nM throughout.

By Ki is commonly meant the equilibrium dissociation constant of an inhibitor or competing ligand from its target. By pEC50 is commonly meant the negative decadic logarithm of the EC50, by convention in mol/L. High values mean a small EC50, low ones a large EC50. Take `CCCCCC(O)c1ccc([C@H]2CCC(=O)[C@@H]2CCCc2ccc(C(=O)O)s2)cc1` (some centres unmarked) [Entry 23]: on human EP2 receptors, the Ki came to 54 nM. Moreover, the EC50 on hEP2/Gqs5 stood at 2 nM; at hEP3A/Gqi5 it was 55 nM. Also, on HEP 2, the pEC50 is 8.52.
